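96-well plates; 48 h exposure; 5 concentrations. Endpoints by linear interpolation between flanking doses. Not reached: highest tested concentration assigned. GI50 is the concentration that inhibits growth by half. TGI: concentration producing complete growth inhibition.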
Tests used:
Experiment in all cases: inhibition of tumour cell growth, NCI panel, 48 h
[1] = test system: SF-539 CNS
[2] = test system: SK-MEL-5 melanoma
[3] = test system: UACC-257 melanoma
[4] = test system: SN12C renal
[5] = test system: TK-10 renal
[6] = test system: U251 CNS
[7] = test system: MCF7 breast
[8] = test system: MOLT-4 leukemia
[9] = test system: IGROV1 ovarian
[10] = test system: SNB-19 CNS
[11] = test system: UO-31 renal
[12] = test system: NCI-H23 lung
[13] = test system: EKVX NSCLC
[14] = test system: SNB-75 CNS
[15] = test system: NCI-H226 lung
[16] = test system: T-47D breast
[17] = test system: MDA-MB-231 breast
[18] = test system: HS 578T breast
[19] = test system: NCI-H522 lung
[20] = test system: RPMI-8226 leukemia
[21] = test system: ACHN renal
[22] = test system: HT29 colon
[23] = test system: DU-145 prostate
[24] = test system: PC-3 prostate
[25] = test system: HOP-92 NSCLC
[26] = test system: MDA-MB-435
[27] = test system: HCT-116 colon
[28] = test system: SK-MEL-28 melanoma
[29] = test system: SW-620 colon
[30] = test system: MALME-3M melanoma
[31] = test system: LOX IMVI melanoma
[32] = test system: RXF 393 renal
[33] = test system: BT-549 breast
[34] = test system: NCI-H460 lung
[35] = test system: HCC-2998 colon
[36] = test system: SF-268 CNS
[37] = test system: UACC-62 melanoma
[38] = test system: OVCAR-5 ovarian
[39] = test system: K-562 leukemia
[40] = test system: HL-60(TB) leukemia
[41] = test system: HOP-62 NSCLC
[42] = test system: CCRF-CEM leukemia
[43] = test system: NCI/ADR-RES ovarian
[44] = test system: SK-MEL-2 melanoma
[45] = test system: M14 melanoma
[46] = test system: OVCAR-3 ovarian
[47] = test system: CAKI-1 renal
[48] = test system: A549 NSCLC
[49] = test system: SF-295 CNS
[50] = test system: OVCAR-8 ovarian
[51] = test system: OVCAR-4 ovarian
[52] = test system: SK-OV-3 ovarian
[53] = test system: SR leukemia
[54] = test system: KM12 colon
[55] = test system: A498 renal
[56] = test system: HCT-15 colon
[57] = test system: COLO 205 colon
[58] = test system: 786-0 renal

CCCCOc1ccc(NC(=O)n2nc(N)c3ccccc32)cc1
GI50 [1]: 17.2 µM | TGI [1]: 35.7 µM | GI50 [2]: 14.9 µM | TGI [2]: 28.2 µM | GI50 [3]: 24.8 µM | TGI [3]: 73.5 µM | GI50 [4]: 23.4 µM | TGI [4]: 85.9 µM | GI50 [5]: 26.9 µM | TGI [5]: > 73.5 µM | GI50 [6]: 30.9 µM | TGI [6]: > 100 µM | GI50 [7]: 5.62 µM | TGI [7]: 32.3 µM | GI50 [8]: 0.921 µM | TGI [8]: 34.8 µM | GI50 [9]: 33 µM | TGI [9]: > 100 µM | GI50 [10]: 52 µM | TGI [10]: > 100 µM | GI50 [11]: 13.4 µM | TGI [11]: > 100 µM | GI50 [12]: 22.6 µM | TGI [12]: 57.5 µM | GI50 [13]: 17.4 µM | TGI [13]: 85.1 µM | GI50 [14]: 29.6 µM | TGI [14]: 82.4 µM | GI50 [15]: 21 µM | TGI [15]: > 85.2 µM | GI50 [16]: 17 µM | TGI [16]: > 88.2 µM | GI50 [17]: 14 µM | TGI [17]: 41.5 µM | GI50 [18]: 20.7 µM | TGI [18]: 53.4 µM | GI50 [19]: 23.9 µM | TGI [19]: > 89.1 µM | GI50 [20]: 2.63 µM | TGI [20]: 28.4 µM | GI50 [21]: 22.7 µM | TGI [21]: > 89.4 µM | GI50 [22]: 9.98 µM | TGI [22]: 26 µM | GI50 [23]: 19.8 µM | TGI [23]: 70 µM | GI50 [24]: 13.9 µM | TGI [24]: 54.1 µM | GI50 [25]: 17.7 µM | TGI [25]: 54.1 µM | GI50 [26]: 22.8 µM | TGI [26]: > 65.1 µM | GI50 [27]: 19.3 µM | TGI [27]: 55.7 µM | GI50 [28]: 28.3 µM | TGI [28]: > 90.5 µM | GI50 [29]: 19 µM | TGI [29]: 37.2 µM | GI50 [30]: 18.9 µM | TGI [30]: 48.4 µM | GI50 [31]: 11.6 µM | TGI [31]: 24.2 µM | GI50 [32]: 25.8 µM | TGI [32]: 61.2 µM | GI50 [33]: 17.6 µM | TGI [33]: 37 µM | GI50 [34]: 13 µM | TGI [34]: 31.2 µM | GI50 [35]: 17 µM | TGI [35]: 37 µM | GI50 [36]: 20.3 µM | TGI [36]: > 100 µM | GI50 [37]: 14.7 µM | TGI [37]: 38.3 µM | GI50 [38]: 21.9 µM | TGI [38]: 68.4 µM | GI50 [39]: 11.5 µM | TGI [39]: 50.4 µM | GI50 [40]: 0.813 µM | TGI [40]: 21 µM | GI50 [41]: 24.4 µM | TGI [41]: 60.6 µM | GI50 [42]: 0.0755 µM | TGI [42]: 4.68 µM | GI50 [43]: 23.9 µM | TGI [43]: 71.1 µM | GI50 [44]: 27.8 µM | TGI [44]: 76 µM | GI50 [45]: 17.7 µM | TGI [45]: 42.2 µM | GI50 [46]: 19 µM | TGI [46]: 42.2 µM | GI50 [47]: 29.1 µM | TGI [47]: 71.9 µM | GI50 [48]: 21.6 µM | TGI [48]: > 87.9 µM | GI50 [49]: 23.5 µM | TGI [49]: 79.3 µM | GI50 [50]: 30.3 µM | TGI [50]: > 85.9 µM | GI50 [51]: 26.6 µM | TGI [51]: > 100 µM | GI50 [52]: 49.2 µM | TGI [52]: > 100 µM | GI50 [53]: 16 µM | TGI [53]: 39.5 µM | GI50 [54]: 13.2 µM | TGI [54]: 54.2 µM | GI50 [55]: 20.1 µM | TGI [55]: 49.4 µM | GI50 [56]: 16.9 µM | TGI [56]: 70.4 µM | GI50 [57]: 18 µM | TGI [57]: 41 µM | GI50 [58]: 19.7 µM | TGI [58]: 48.4 µM

Source: PubChem BioAssay (NCI)
